Assays:
[1] = biological target: T1, menin/MLL (terbium chelate-labeled menin, FITC-MBM1 peptide) (Homo sapiens, UniProt O00255, T541A); assay: Menin/MLL homogenous time-resolved fluorescence (HTRF) assay; type: binding; details: 30 min incubation
T1 construct: Menin (a.a 1-610-6xhis tag)
T1 sequence (O00255 with tags, fused parts or gaps T541A): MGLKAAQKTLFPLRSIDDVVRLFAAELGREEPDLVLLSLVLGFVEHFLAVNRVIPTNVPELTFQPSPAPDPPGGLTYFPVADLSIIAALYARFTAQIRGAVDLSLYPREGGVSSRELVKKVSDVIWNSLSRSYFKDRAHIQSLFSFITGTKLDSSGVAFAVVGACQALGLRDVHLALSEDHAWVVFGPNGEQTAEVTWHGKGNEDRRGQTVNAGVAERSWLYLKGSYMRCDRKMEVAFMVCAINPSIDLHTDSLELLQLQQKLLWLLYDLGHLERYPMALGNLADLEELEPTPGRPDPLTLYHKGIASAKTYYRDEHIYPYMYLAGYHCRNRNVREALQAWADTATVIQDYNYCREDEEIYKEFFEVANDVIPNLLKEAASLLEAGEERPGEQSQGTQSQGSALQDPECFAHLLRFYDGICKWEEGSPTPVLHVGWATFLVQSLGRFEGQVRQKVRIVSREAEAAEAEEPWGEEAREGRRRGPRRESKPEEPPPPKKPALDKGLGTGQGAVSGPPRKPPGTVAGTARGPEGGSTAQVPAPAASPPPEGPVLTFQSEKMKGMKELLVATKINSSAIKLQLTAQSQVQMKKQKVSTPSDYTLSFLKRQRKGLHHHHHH
Outline: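 Tb-cryptate menin (1-610, 6xHis) 200 pM + cmpd, 30 min RT; + FITC-MBM1 75 nM, 15 min RT. 40 mM Tris pH 7.5, 50 mM NaCl, 1 mM DTT, 0.05% Pluronic F-127, 0.5% DMSO. HTRF 520/490; 11-pt 4-fold from 10 μM; IC50 fit.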

MOLM14 cells = assay: Proliferation assay, spheroid-like growth, MOLM14 (MLL-AF9 rearranged); type: cell-based, human; details: Homo sapiens, MOLM-14, 192 h, 8 days, confluence as measure of spheroid size, read-out: spheroid assay_OneTime MOLM14 IC50
Outline: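 200 MOLM14 or 300 KO-52 cells/well, ultra-low attachment, compound dilutions, DMSO 0.3%; 8 d, 37 °C, 5% CO2. Read: live-cell imaging confluence (spheroid size) day 8. Absolute IC50, min 0%/max 100% fixed, variable slope.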

KO-52 cells = assay: Proliferation assay, spheroid-like growth, KO-52 (MLL wildtype control cell line); type: cell-based, human; details: Homo sapiens, 192 h, KO-52 control cells, 8 days, confluence as measure of spheroid size; read-out: spheroid assay_OneTime KO-52 IC50
Experimental: The anti-proliferative effect of menin/MLL protein/protein interaction inhibitor test compounds was assessed in human leukemia cell lines. The cell line MOLM14 harbors a MLL translocation and expresses the MLL fusion proteins MLL-AF9, respectively, as well as the wildtype protein from the second allele. […] KO-52 was used as a control cell line containing two MLL (KMT2A) wildtype alleles in order to exclude compounds that display general cytotoxic effects.
MOLM14 cells were cultured in RPMI-1640 (Sigma Aldrich) supplemented with 10% heat-inactivated fetal bovine serum (HyClone), 2 mM L-glutamine (Sigma Aldrich) and 50 μg/ml gentamycin (Gibco). KO-52 cell lines were propagated in alpha-MEM (Sigma Aldrich) supplemented with 20% heat-inactivated fetal bovine serum (HyClone), 2 mM L-glutamine (Sigma Aldrich) and 50 μg/ml gentamycin (Gibco).
In order to assess the anti-proliferative effects, 200 MOLM14 cells, or 300 KO-52 cells were seeded in 200 μl media per well in 96-well round bottom, ultra-low attachment plates (Costar, catalogue number 7007). Cell seeding numbers were chosen based on growth curves to ensure linear growth throughout the experiment. Test compounds were added at different concentrations and the DMSO content was normalized to 0.3%. Cells were incubated for 8 days at 37° C. and 5% CO2. Spheroid like growth was measured in real-time by live-cell imaging (IncuCyteZOOM, Essenbio, 4× objective) acquiring images at day 8. Confluence (%) as a measure of spheroid size was determined using an integrated analysis tool.
In order to determine the effect of the test compounds over time, the confluence in each well as a measure of spheroid size, was calculated. Confluence of the highest dose of a reference compound was used as baseline for the LC (Low control) and the confluence of DMSO treated cells was used as 0% cytotoxicity (High Control, HC).
Absolute IC50 values were calculated as percent change in confluence as follows:
LC=Low Control: cells treated with e.g. 1 μM of the cytotoxic agent staurosporin, or e.g. cells treated with a high concentration of an alternative reference compound
GraphPad Prism (version 7.00) was used to calculate the IC50. Dose-response equation was used for the plot of % Effect vs Log 10 compound concentration with a variable slope and fixing the maximum to 100% and the minimum to 0%.

| SMILES | IC50 [1] [nM] | IC50 (MOLM14 cells) [nM] | IC50 (KO-52 cells) [nM] |
| --- | --- | --- | --- |
| CC(=O)N1CC2(C1)CN([C@H]1C[C@@H]([C@@H](C(C)C)N3CC4(CCN(c5ncnnc5Oc5ccc(F)cc5-c5cncnc5C5CC5)C4)C3)C1)C2 (single isomer, unassigned) [Compound 170] | 0.1 | 5 | 8680 |
| COC1CCN([C@H]2C[C@@H](C(C(C)C)N3CC4(CCN(c5ncnnc5Oc5ccc(F)cc5-c5cncnc5C5CC5)C4)C3)C2)CC1 (single isomer, unassigned) [Compound 16] | 0.1 | 4 | 1880 |
| CC(C)C([C@H]1C[C@@H](N2CCC(C)(O)CC2)C1)N1CC2(CCN(c3ncnnc3Oc3ccc(F)cc3-c3cncnc3C3CC3)C2)C1 (stereo partly drawn) [Compound 129] | 0.2 | 11 | 3390 |
| CC(C)[C@H]([C@H]1C[C@@H](N2CCC3(CC2)COC3)C1)N1CC2(CCN(c3ncnnc3Oc3ccc(F)cc3-c3cncnc3C3CC3)C2)C1 (single isomer, unassigned) [Compound 231] | 0.1 | 7 | 5520 |
| CC(C)[C@H]([C@H]1C[C@H](N2CC3(CCO3)C2)C1)N1CC2(CCN(c3ncnnc3Oc3ccc(F)cc3-c3cnncc3C3CC3)C2)C1 (single isomer, unassigned) [Compound 84a] | 21.5 | 850 | > 15000 |
| CC(C)[C@H]([C@H]1C[C@@H](NC(=O)C2(F)CC2)C1)N1CC2(CCN(c3ncnnc3Oc3ccc(F)cc3-c3nnccc3C3CC3)C2)C1 (single isomer, unassigned) [Compound 305] | 0.2 | 17 | 5780 |
| CC(C)[C@H]([C@H]1C[C@@H](N2C[C@@H](O)C3(CC3)C2)C1)N1CC2(CCN(c3ncnnc3Oc3ccc(F)cc3-c3cncnc3C3CC3)C2)C1 (single isomer, unassigned) [Compound 46] | 0.1 | 2 | 5930 |
| CC(C)[C@H]([C@H]1C[C@@H](N2CC3(CCO3)C2)C1)N1CC2(CCN(c3ncnnc3Oc3ccc(F)cc3-c3cnncc3C3CC3)C2)C1 (single isomer, unassigned) [Compound 84] | 5.5 | 220 | > 15000 |
| CC(C)C([C@H]1C[C@@H](N2CCC(O)CC2)C1)N1CC2(CCN(c3ncnnc3Oc3ccc(F)cc3-c3cncnc3C3CC3)C2)C1 (stereo partly drawn) [Compound 121] | 0.1 | 7 | 2780 |
| CC(C)[C@H]([C@H]1C[C@@H](N2C[C@H]3C[C@@H]2CO3)C1)N1CC2(CCN(c3ncnnc3Oc3ccc(F)cc3-c3ncccc3C3CC3)C2)C1 (single isomer, unassigned) [Compound 288] | 0.1 | 17 | 12100 |
| CC(C)[C@H]([C@H]1C[C@@H](N2CCC3(COC3)C2)C1)N1CC2(CCN(c3ncnnc3Oc3ccc(F)cc3-c3cncnc3C3CC3)C2)C1 (single isomer, unassigned) [Compound 325] | 0.1 | 4 | 4980 |
| CC(C)C([C@H]1C[C@@H](Nc2ccnc(N)n2)C1)N1CC2(CCN(c3ncnnc3Oc3ccc(F)cc3-c3cncnc3C3CC3)C2)C1 (stereo partly drawn) [Compound 434] | 0.08 | 2.9 | 2000 |
| CC(C)[C@H]([C@H]1C[C@@H](N2CCC[C@@H](C(=O)N(C)C)C2)C1)N1CC2(CCN(c3ncnnc3Oc3ccc(F)cc3-c3cncnc3C3CC3)C2)C1 (single isomer, unassigned) [Compound 50] | 0.1 | < 2 | > 15000 |
| CC(=O)N[C@H]1C[C@@H]([C@@H](C(C)C)N2CC3(CCN(c4ncnnc4Oc4ccc(F)cc4-c4cnccc4C4CC4)C3)C2)C1 (single isomer, unassigned) [Compound 312] | 0.2 | 5 | 1270 |
| CC(C)[C@H]([C@H]1C[C@@H](N2CCOCC2)C1)N1CC2(CCN(c3ncnnc3Oc3ccc(F)cc3-c3cncnc3C3CC3)C2)C1 (single isomer, unassigned) [Compound 208] | 0.3 | 29 | 9130 |
| CC(=O)N1CCN([C@H]2C[C@@H]([C@H](C(C)C)N3CC4(CCN(c5ncnnc5Oc5ccc(F)cc5-c5cccnc5C5CC5)C4)C3)C2)CC1 (single isomer, unassigned) [Compound 89] | 0.2 | 20 | 6180 |
| CC(C)[C@H]([C@H]1C[C@@H](NC(=O)CC#N)C1)N1CC2(CCN(c3ncnnc3Oc3ccc(F)cc3-c3cncnc3C3CC3)C2)C1 (single isomer, unassigned) [Compound 298] | 0.1 | 6 | 9320 |
| CC(=O)N[C@H]1C[C@@H]([C@@H](C(C)C)N2CC3(CCN(c4ncnnc4Oc4ccc(F)cc4-c4nccnc4C4CC4)C3)C2)C1 (single isomer, unassigned) [Compound 177] | 0.2 | 37 | 8870 |
| CO[C@H]1CCN([C@H]2C[C@@H]([C@H](C(C)C)N3CC4(CCN(c5ncnnc5Oc5ccc(F)cc5-c5cnncc5C5CC5)C4)C3)C2)C1 (single isomer, unassigned) [Compound 108] | 0.2 | 1 | 2650 |
| CC(C)[C@H]([C@H]1C[C@H](N2CC[C@@H](C(C)(C)O)C2)C1)N1CC2(CCN(c3ncnnc3Oc3ccc(F)cc3-c3cncnc3C3CC3)C2)C1 (single isomer, unassigned) [Compound 71] | 0.1 | 60 | 9730 |
| CC(=O)N1CC2(CCCN2[C@H]2C[C@@H]([C@@H](C(C)C)N3CC4(CCN(c5ncnnc5Oc5ccc(F)cc5-c5cncnc5C5CC5)C4)C3)C2)C1 (single isomer, unassigned) [Compound 56] | 0.4 | 350 | > 15000 |
| CC(C)[C@@H]([C@H]1C[C@H](N2C[C@H]3C[C@@H]2CO3)C1)N1CC2(CCN(c3ncnnc3Oc3ccc(F)cc3-c3cccnc3C3CC3)C2)C1 (single isomer, unassigned) [Compound 291] | 0.2 | 24 | 1070 |
| CC(C)[C@@H]([C@H]1C[C@@H](NC(=O)C2CC2)C1)N1CC2(CCN(c3ncnnc3Oc3ccc(F)cc3-c3cnncc3C3CC3)C2)C1 (single isomer, unassigned) [Compound 186] | 5.4 | > 940 | 7050 |
| CC(C)[C@@H]([C@H]1C[C@@H](N2CCC3(CC2)COC3)C1)N1CC2(CCN(c3ncnnc3Oc3ccc(F)cc3-c3nnccc3C3CC3)C2)C1 (single isomer, unassigned) [Compound 253] | 0.1 | 10 | 1620 |
